# According to patent publication US12331045B2, “Substituted phenyl oxazolone compounds” (Bristol-Myers Squibb Company, priority 2023, dated 2025):
# Tests used:
# Format in all cases: cell-based
# IKZF1 Ikaros [1] = molecular target: T1, IKZF1 Ikaros (Homo sapiens, UniProt Q13422+Q96SW2); assay: Jurkat Cellular Degradation Assay; set-up: HELIOS-PE-Cy7, EOS-PE, IKAROS-PECF594, AIOLOS-AF647; endogenous in cells; conditions: Jurkat cells, 72 h; for IKZF1 Ikaros max % deg. observed: flow cytometry, 100% = complete degradation
# T1 sequence (Q13422 whole entry): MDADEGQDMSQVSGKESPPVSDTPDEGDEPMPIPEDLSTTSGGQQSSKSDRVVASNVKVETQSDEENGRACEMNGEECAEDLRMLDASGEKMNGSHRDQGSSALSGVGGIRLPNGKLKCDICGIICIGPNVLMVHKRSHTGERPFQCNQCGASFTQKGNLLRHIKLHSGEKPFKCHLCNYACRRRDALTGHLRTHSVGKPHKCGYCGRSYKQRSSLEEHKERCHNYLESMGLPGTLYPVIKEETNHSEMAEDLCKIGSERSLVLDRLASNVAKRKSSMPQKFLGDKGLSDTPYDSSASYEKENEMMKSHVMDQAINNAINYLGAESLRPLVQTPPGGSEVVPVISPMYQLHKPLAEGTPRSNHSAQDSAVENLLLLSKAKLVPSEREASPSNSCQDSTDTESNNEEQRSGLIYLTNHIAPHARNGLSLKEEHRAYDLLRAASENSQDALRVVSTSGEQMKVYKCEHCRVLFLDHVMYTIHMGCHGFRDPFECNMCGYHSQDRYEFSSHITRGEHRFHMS
# T1 sequence (Q96SW2 whole entry): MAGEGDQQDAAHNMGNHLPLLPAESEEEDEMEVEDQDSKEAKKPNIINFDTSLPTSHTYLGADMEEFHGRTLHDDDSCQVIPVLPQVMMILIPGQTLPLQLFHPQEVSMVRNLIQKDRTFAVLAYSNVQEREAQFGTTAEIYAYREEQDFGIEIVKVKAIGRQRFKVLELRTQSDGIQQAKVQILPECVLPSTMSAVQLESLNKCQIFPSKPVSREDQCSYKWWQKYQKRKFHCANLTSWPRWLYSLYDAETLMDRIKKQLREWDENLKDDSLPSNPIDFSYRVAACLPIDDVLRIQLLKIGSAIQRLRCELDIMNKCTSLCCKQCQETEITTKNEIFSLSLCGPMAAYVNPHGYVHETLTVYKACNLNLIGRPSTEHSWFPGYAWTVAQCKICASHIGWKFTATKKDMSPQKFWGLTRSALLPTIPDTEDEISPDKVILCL
# T1 sequence (Q16531 whole entry partner): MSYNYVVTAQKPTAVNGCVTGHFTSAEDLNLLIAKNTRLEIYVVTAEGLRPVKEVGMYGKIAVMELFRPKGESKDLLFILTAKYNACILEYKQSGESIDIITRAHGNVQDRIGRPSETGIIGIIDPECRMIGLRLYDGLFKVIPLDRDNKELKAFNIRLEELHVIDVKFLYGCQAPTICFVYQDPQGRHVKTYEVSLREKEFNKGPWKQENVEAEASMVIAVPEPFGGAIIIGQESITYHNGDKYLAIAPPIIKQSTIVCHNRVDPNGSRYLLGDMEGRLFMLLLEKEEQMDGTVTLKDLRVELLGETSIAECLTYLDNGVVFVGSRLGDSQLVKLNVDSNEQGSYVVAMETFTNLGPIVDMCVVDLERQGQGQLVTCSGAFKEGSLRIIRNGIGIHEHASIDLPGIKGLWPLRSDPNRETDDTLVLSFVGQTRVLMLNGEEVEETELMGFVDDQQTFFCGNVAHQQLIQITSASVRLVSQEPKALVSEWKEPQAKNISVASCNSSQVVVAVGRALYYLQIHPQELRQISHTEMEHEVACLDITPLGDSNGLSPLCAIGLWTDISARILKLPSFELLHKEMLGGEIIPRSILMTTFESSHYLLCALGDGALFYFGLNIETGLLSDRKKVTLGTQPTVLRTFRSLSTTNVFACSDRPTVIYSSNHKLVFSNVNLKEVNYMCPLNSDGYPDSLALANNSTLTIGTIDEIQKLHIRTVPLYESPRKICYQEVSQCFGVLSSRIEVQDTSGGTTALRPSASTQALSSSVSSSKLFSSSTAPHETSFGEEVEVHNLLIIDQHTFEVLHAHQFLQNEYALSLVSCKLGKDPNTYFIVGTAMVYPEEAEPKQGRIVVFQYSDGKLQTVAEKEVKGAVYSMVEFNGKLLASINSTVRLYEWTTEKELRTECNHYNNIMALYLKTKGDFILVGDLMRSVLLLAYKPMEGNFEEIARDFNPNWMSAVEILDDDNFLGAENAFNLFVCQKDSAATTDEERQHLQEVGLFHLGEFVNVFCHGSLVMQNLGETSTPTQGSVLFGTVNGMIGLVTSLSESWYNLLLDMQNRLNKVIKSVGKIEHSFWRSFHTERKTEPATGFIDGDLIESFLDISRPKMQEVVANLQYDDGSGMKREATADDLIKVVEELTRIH
# Experimental: (§1) Jurkat cells were plated at 80,000 cells/well in 40 μL RPMI+10% FBS in a 384-well cell culture plate prior to using acoustic dispensing technology for adding a compound of interest. Cell cultures were incubated for 72 h at 37° C., and 5% CO2. In order to facilitate analysis, cell cultures were spun down at 200 rpm for 5 min and the supernatant was discarded. After shaking the plate to dislodge the cell pellet, cells were resuspended in 50 qL of Fixation Buffer (eBioscience FoxP3 buffer set 00-5523-00) for 60 min at room temperature. After centrifuging and discarding the supernatant, cells were permeabilized with 50 μL of Permeabilization buffer (eBioscience FoxP3 buffer set 00-5523-00) for 10 min at room temperature. Following permeabilization, cells were spun down and the supernatant was replaced with 20 μL fluorescently labelled antibodies against Helios, Ikaros and Aiolos or corresponding Isotype controls in 1-Penneabilization buffer (Ikaros-Alexa488 [Biolegend, Cat #368408, 1:50], Helios-PE [CST, Cat #29360, 1:50], Aiolos-Alexa647 [Biolegend, Cat #371106 Biolegend, 1:25]) and staining reactions were incubated for 1 h at room temperature while protected from light. Subsequently, 30 μL of 1× Permeabilization buffer was added prior to centrifuging the cells and discarding the supernatant. Stained cells were resuspended in 25 μL of flow cytometry staining buffer [PBS+0.2% bovine serum albumin (BSA)] and analyzed using an Intellicyt Ique Plus flow cytometer.
# IKZF3 Aiolos [2] = molecular target: T2, IKZF3 Aiolos (Homo sapiens, UniProt Q96SW2+Q9UKT9); assay: Jurkat Cellular Degradation Assay; conditions: Jurkat cells, 72 h; for IKZF3 Aiolos max % deg. observed: flow cytometry, 100% = complete degradation
# T2 sequence (Q9UKT9 whole entry): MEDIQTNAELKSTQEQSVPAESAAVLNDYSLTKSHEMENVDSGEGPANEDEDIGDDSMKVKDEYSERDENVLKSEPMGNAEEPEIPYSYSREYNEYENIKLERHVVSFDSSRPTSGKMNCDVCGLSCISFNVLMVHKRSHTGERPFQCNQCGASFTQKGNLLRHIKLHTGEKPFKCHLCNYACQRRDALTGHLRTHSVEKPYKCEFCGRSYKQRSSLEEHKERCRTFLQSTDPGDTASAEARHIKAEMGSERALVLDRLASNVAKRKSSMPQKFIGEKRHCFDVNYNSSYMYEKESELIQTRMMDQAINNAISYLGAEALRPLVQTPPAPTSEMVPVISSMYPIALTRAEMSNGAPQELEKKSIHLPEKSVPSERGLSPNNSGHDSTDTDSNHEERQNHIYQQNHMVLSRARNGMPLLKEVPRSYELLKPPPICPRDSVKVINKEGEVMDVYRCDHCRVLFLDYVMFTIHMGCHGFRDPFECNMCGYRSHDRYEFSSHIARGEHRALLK
# T2 sequence (Q96SW2 whole entry): as the sequence (Q96SW2 whole entry) above
# T2 sequence (Q16531 whole entry partner): as the sequence (Q16531 whole entry partner) above
# Experimental: as §1
# IKZF2 Helios [3] = molecular target: T3, IKZF2 Helios (Homo sapiens, UniProt Q96SW2+Q9UKS7); assay: Jurkat Cellular Degradation Assay; set-up: endogenous in cells; conditions: Jurkat cells, 72 h; concentration reducing protein by 50% vs DMSO
# T3 sequence (Q9UKS7 whole entry): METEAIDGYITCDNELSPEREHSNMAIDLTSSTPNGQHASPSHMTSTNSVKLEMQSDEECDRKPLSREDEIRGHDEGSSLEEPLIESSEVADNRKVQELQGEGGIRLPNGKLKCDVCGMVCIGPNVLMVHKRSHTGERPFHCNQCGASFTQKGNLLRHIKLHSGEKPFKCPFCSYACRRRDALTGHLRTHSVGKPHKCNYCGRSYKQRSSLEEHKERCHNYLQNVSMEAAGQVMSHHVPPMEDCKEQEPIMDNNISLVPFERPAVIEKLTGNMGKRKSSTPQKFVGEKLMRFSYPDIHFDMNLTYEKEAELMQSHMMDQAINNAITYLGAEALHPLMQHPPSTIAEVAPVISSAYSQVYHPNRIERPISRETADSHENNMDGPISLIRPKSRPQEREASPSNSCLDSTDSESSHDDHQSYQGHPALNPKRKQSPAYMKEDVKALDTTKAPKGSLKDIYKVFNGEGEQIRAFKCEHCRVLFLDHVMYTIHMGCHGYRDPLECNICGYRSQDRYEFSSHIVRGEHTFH
# T3 sequence (Q96SW2 whole entry): as the sequence (Q96SW2 whole entry) above
# T3 sequence (Q16531 whole entry partner): as the sequence (Q16531 whole entry partner) above
# Experimental: as §1, with “Subsequently, 30 μL of 1× Permeabilization buffer was added prior to centrifuging the cells and discarding the supernatant.” left out
# IKZF2 Helios [4] = molecular target: T3, IKZF2 Helios; assay: Human T Regulatory Cells Degradation Assay; set-up: endogenous in cells; host or cells: primary human CD4+CD127lowCD25+ Treg cells sorted from healthy-donor leukopaks; conditions: 20 hours
# Experimental: Cryopreserved human T regulatory cells were thawed in RPMI+10% FBS+20 ng/mL IL-2. After being spun at 1200 rpm for 5 mins, the cells were resuspended in RPMI+10% FBS+20 ng/mL and rested at 37° C. with 5% CO2 for 3 hours. The cells were then plated at 40,000 cells/well in 40 μL RPMI+10% FBS+20 ng/mL human IL-2 in a 384 well cell culture plate prior to using acoustic dispensing technology (ECHO 555) for adding compounds of interest. Cell cultures were incubated for 20 hours at 37° C., and 5% CO2. In order to facilitate analysis, cell cultures were spun down at 1200 rpm for 5 minutes and the supernatant was discarded using an EL406 plate washer. After washing three times with 70 μL PBS, cell pellets were resuspended in 50 μL of near IR viability staining solution (Life Technologies, Cat #L34975) and incubated for 30 minutes on ice protected from light. Cells were washed three times with […] PBS+0.5% BSA using an EL406 plate washer. After shaking the plate to dislodge the cell pellet, cells were resuspended in 50 μL of Fixation Buffer (eBioScience FoxP3 buffer set 00-5523-00) for 60 minutes at room temperature. […] Stained cells were resuspended in 30 μL of flow cytometry staining buffer (PBS+0.5% BSA) and analyzed using an Intellicyt Ique Plus flow cytometer.
# IKZF2 Helios [5] = molecular target: T3, IKZF2 Helios; assay: Human T Regulatory Cells Reprogramming Assay; set-up: endogenous in cells; host or cells: primary human CD4+CD127lowCD25+ Treg cells sorted from healthy-donor leukopaks; conditions: sorted human Treg cells, 12-13 days; 50% reduction vs DMSO
# Experimental: (§2) Human CD4^+ T cells were isolated from fresh healthy leukopaks (Stemcell Technologies) using the RosetteSep Human CD4^+ T cell enrichment cocktail (Stemcell Technologies) and Ficoll density gradient centrifugation. Leukopaks were diluted with an equal volume of phosphate-buffered saline (PBS [Gibco]) supplemented with 2% fetal bovine serum (FBS, VWR Lifescience) and incubated with RosetteSep Human CD4^+ T cell enrichment cocktail for 20 minutes before layering on Ficoll-Paque Plus solution (GE Health Care). The cell-rich interface layer was harvested and washed twice with PBS supplemented with 2% FBS. Regulatory T cells were then isolated manually using the EasySep Human CD4^+CD127^lowCD25^+ Regulatory T cell isolation kit (Stemcell Technologies) according to the manufacturer's instructions. Cells were rested overnight in Roswell Park Memorial Institute (RPMI) 1640 media (Gibco) supplemented with 10% FBS, Pen/Strep (Gibco), MEM-NEAA (Gibco), and sodium pyruvate (Gibco) in a humidified incubator (37° C., 5% CO2). […]
# (§3) For flow cytometry staining, cells were washed twice with flow cytometry staining buffer (Thermo Fisher) and incubated in Human Tru-stain Fc block (Biolegend) for 10 minutes before adding eFluor780 viability dye (Thermo Fisher) and surface marker antibody cocktail for 30 minutes at 4° C. […] Data were analyzed using FlowJo version 10 and GraphPad Prism Software.
# IKZF1 Ikaros [6] = molecular target: T1, IKZF1 Ikaros; assay: Human T Regulatory Cells Degradation Assay; set-up: HELIOS-PE-Cy7, EOS-PE, IKAROS-PECF594, AIOLOS-AF647; endogenous in cells; conditions: 20 hours
# IKZF3 Aiolos [7] = molecular target: T2, IKZF3 Aiolos; assay: Human CD8+ T Cell Reprogramming Assay (method headed Human CD8+ T Cell Degradation Assay); set-up: HELIOS-PE-Cy7, EOS-PE, IKAROS-PECF594, AIOLOS-AF647; endogenous in cells; host or cells: healthy-donor human PBMC; CD8+ T cells analysed by flow cytometry; conditions: CD8+ T cells in human PBMC, 24 hours; for IKZF3 Aiolos Maximum Observed Degradation: flow cytometry; for DC50: 50% reduction vs DMSO
# Experimental: (§4) Cryopreserved healthy donor human peripheral blood mononuclear cells (PBMC; obtained from Stemcell Technologies or Blood Works Northwest) from two healthy donors were thawed and seeded at 500,000 cells/well of 96-well round bottom plates in RPMI 1640 media (Gibco) supplemented with 10% FBS, Pen/Strep (Gibco), MEM-NEAA (Gibco), and sodium pyruvate (Gibco). Cells were treated with titrated doses of compound for 24 hours at 37° C., 5% CO2 before analyzing by flow cytometry.
# (§5) For flow cytometry staining, cells were washed twice with flow cytometry staining buffer (Thermo Fisher) and incubated in Human Tru-stain Fc block (Biolegend) for 10 minutes before adding eFluor780 viability dye (Thermo Fisher) and surface marker antibody cocktail containing LD-eFluor780, CD3-BUV-395, CD4-BUV805, CD8-FITC, CD25-BV605, FoxP3-BV421, HELIOS-PE-Cy7, EOS-PE, IKAROS-PECF594, AIOLOS-AF647 for 30 minutes at 4° C. Cells were then fixed and permeabilized by incubation with permeabilization buffer (eBioscience FoxP3 buffer set 00-5523-00) for 30 minutes at 4° C., as per the kit manufacturer's instructions. Cells were washed twice with the Perm/Wash buffer suppled in the kit as per the manufacturer's instructions and incubated overnight at 4° C. with an intracellular antibody cocktail comprised of antibodies specific for the transcription factors shown in Table C. Cells were washed twice with Perm/Wash buffer and resuspended in flow cytometry staining buffer (Thermo Fisher) prior to acquisition. Sample acquisition and analysis was performed using a BD LSRFortessa (BD Biosciences) flow cytometer. Single stain controls for each fluorochrome were prepared using UltraComp eBead Compensation Beads (Thermo Fisher). Data were analyzed using FlowJo version 10 and GraphPad Prism Software.
# IKZF1 Ikaros [8] = molecular target: T1, IKZF1 Ikaros; assay: as above; set-up: HELIOS-PE-Cy7, EOS-PE, IKAROS-PECF594, AIOLOS-AF647; endogenous in cells; host or cells: healthy-donor human PBMC; CD8+ T cells analysed by flow cytometry; conditions: CD8+ T cells in human PBMC, 24 hours; for IKZF1 Ikaros Maximum Observed Degradation: flow cytometry; for DC50: 50% reduction vs DMSO
# Experimental: as §4, §5
# IKZF4 Eos = molecular target: T4, IKZF4 Eos (Homo sapiens, UniProt Q96SW2+Q9H2S9); assay: Human T Regulatory Cells Reprogramming Assay; conditions: sorted human Treg cells, 12-13 days; 50% reduction vs DMSO
# T4 construct: endogenous in cells; host or cells: primary human CD4+CD127lowCD25+ Treg cells sorted from healthy-donor leukopaks
# T4 sequence (Q9H2S9 whole entry): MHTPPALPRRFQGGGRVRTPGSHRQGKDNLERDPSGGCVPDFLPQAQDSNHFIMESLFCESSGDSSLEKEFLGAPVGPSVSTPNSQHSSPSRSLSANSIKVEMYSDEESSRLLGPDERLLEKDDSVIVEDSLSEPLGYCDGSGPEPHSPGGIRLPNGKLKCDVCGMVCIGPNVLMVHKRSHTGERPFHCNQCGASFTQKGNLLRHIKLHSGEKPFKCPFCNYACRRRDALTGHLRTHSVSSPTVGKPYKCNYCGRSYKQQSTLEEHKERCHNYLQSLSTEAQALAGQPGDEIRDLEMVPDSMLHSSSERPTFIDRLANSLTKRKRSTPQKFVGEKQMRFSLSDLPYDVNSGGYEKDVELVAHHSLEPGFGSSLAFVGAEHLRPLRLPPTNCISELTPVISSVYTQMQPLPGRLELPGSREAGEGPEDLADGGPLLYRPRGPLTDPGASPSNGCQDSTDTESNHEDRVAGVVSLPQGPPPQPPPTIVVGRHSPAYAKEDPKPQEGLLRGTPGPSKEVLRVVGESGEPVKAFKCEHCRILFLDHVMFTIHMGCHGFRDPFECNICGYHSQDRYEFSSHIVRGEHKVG
# T4 sequence (Q96SW2 whole entry): as the sequence (Q96SW2 whole entry) above
# T4 sequence (Q16531 whole entry partner): as the sequence (Q16531 whole entry partner) above
# Experimental: as §2, §3
# [9] = concentration reducing protein by 50% vs DMSO
smiles,measurement,setting,value
"O=C1CCC(n2cc(-c3ccccc3)oc2=O)C(=O)N1 (stereo not drawn) [Comparative Compound A, 3-(2-oxo-5-phenyloxazol-3(2H)-yl)piperidine-2,6-dione, reference compound]",IKZF1 Ikaros max % deg. observed,IKZF1 Ikaros [1],57%
same,IKZF3 Aiolos max % deg. observed,IKZF3 Aiolos [2],46%
"O=C1CCC(n2cc(-c3ccc(Br)cc3F)oc2=O)C(=O)N1 (stereo not drawn) [Comparative Compound B, 3-(5-(4-bromo-2-fluorophenyl)-2-oxooxazol-3(2H)-yl)piperidine-2,6-dione, reference compound]",IKZF3 Aiolos max % deg. observed,IKZF3 Aiolos [2],15%
"Cc1cc(-c2ccc(-c3cn(C4CCC(=O)NC4=O)c(=O)o3)c(F)c2)nc(N)c1C (stereo not drawn) [Example 1, 3-(5-(4-(6-Amino-4,5-dimethylpyridin-2-yl)-2-fluorophenyl)-2-oxooxazol-3(2H)-yl) piperidine-2,6-dione]",DC50,IKZF2 Helios [3],13.6 nM
same,DC50,IKZF2 Helios [4]; 50% reduction vs DMSO,5.2 nM
same,IKZF2 Helios max % deg. observed,IKZF2 Helios [4]; flow cytometry,99%
same,DC50,IKZF2 Helios [5],85 nM
same,DC50,IKZF1 Ikaros [6]; 50% reduction vs DMSO,5470 nM
same,IKZF1 Ikaros max % deg. observed,IKZF1 Ikaros [6]; flow cytometry,55%
same,IKZF3 Aiolos Maximum Observed Degradation,IKZF3 Aiolos [7],77%
same,DC50,IKZF3 Aiolos [7],19 nM
same,IKZF1 Ikaros Maximum Observed Degradation,IKZF1 Ikaros [8],74%
same,DC50,IKZF1 Ikaros [8],102 nM
same,IKZF1 Ikaros max % deg. observed,IKZF1 Ikaros [1],66%
same,DC50,IKZF1 Ikaros [1]; [9],1080 nM
same,IKZF3 Aiolos max % deg. observed,IKZF3 Aiolos [2],54%
same,DC50,IKZF3 Aiolos [2]; [9],4920 nM
same,DC50,IKZF4 Eos,1.5 nM
"[2H]C1([2H])C(=O)NC(=O)C([2H])(n2cc(-c3ccc(-c4cc(C)c(C)c(N)n4)cc3F)oc2=O)C1([2H])[2H] (stereo not drawn) [Example 2, 3-(5-(4-(6-amino-4,5-dimethylpyridin-2-yl)-2-fluorophenyl)-2-oxooxazol-3(2H)-yl) piperidine-2,6-dione-3,4,4,5,5-D5]",DC50,IKZF2 Helios [5],42 nM
same,IKZF3 Aiolos Maximum Observed Degradation,IKZF3 Aiolos [7],71%
same,DC50,IKZF3 Aiolos [7],26 nM
same,IKZF1 Ikaros Maximum Observed Degradation,IKZF1 Ikaros [8],66%
same,DC50,IKZF1 Ikaros [8],139 nM
same,DC50,IKZF4 Eos,0.63 nM
